Assay results as given in article PMC3726599, “A Metabolically-Stabilized Phosphonate Analog of Lysophosphatidic Acid Attenuates Collagen-Induced Arthritis” (PLoS ONE, 2013).

Experiments:
recombinant ATX = target: T1, recombinant ATX (Homo sapiens, UniProt Q13822); assay: Amplex Red activity assay, LPC hydrolysis by recombinant ATX (Echelon); assay type: biochemical; settings: for % Inhibition at 10 μΜ: BrP-LPA 10 μΜ; for Ki: Cheng-Prusoff from IC50; for IC50: [S] 50 μΜ, Echelon ATX 2 nM, mean±std
T1 construct: purchased SinoBiological Inc (main data); R&D (additional Km values)
Experimental: BrP-LPA inhibition was also tested with the more sensitive reagent Amplex Red based on the Amplex™ Red PLD assay kit (Molecular Probes, Interchim, Montluçon, France) originally designed for the measurement of the PLD activity, [49]. All reactions were performed with purified ATX (2 nM) from Echelon at 37°C. The ability of ATX to cleave LPC was detected using a coupled assay that monitors the release of choline using Amplex Red (10 μΜ), choline oxidase (0.2 Units/ml) and horseradish peroxidise (2 Units/ml) The rate of fluorescence increase was measured in a fluorescence plate reader (Tecan Infinite 200 microplate reader from Tecan Trading AG, Switzerland) for up to 80 minutes; the fluorescence increase was linear during that time-frame for all cases. Rates were normalized to control reactions that contained all reaction components except for the test compound.
The biochemistry of lyso-PLD was assessed by following the kinetics data using a wide panel of different ATX substrates [FS-3, different LPC species (14:0, 16:0, 18:0, 18:1)], three different recombinant ATX proteins (R&D, Sino-Biological and Echelon) and three different ATX activity assays (FS-3, TOOS, Amplex Red). The ATX activity was measured at different substrate concentrations (typically from 1-1000 μM) in order to examine whether ATX follows Michaelis-Menten kinetics. The Michaelis constant (Km) was obtained by fitting the substrate dependence of V (ATX activity) to a rectangular hyperbola using the non-linear regression analysis of the statistical software package Prism 4.0 (GraphPad Software, Inc.). Km and Vmax were evaluated from the rectangular hyperbola curve with the use of GraphPad software.
For in vitro inhibition measurements, BrP-LPA was dissolved in water as a stock solution (4 mM) and appropriate dilutions were made in water. The inhibition of ATX by BrP-LPA was measured employing 2 nM recombinant ATX, 50 μΜ LPC (14:0, 16:0, 18:0) and 0.01 to 100 μmol/L of BrP-LPA (final concentrations). The in vitro inhibition of ATX by BrP-LPA was evaluated with three different assays (FS-3, Amplex Red, and TOOS). […] BrP-LPA was also tested for its ability to inhibit mouse plasma ATX activity. Diluted mouse plasma was used as the source of ATX and the analysis of inhibition was made with TOOS as the in vitro inhibition assay.
The inhibition model (competitive, noncompetitive, or mixed type inhibition) was evaluated by graphical analysis with Lineweaver–Burk double reciprocal plots (1/[velocity] versus 1/[substrate]) and Cornish-Bowden plot ([substrate]/[velocity] versus [Inhibitor]). These plots were generated by the measurement of ATX activity in the presence of different BrP-LPA concentrations (0–10 μΜ) and increased amounts of 16:0 LPC (100, 200, 400 μΜ). The inhibition constants (Ki) and IC50 values were determined using the mean values obtained from two independent experiments. The relative remaining ATX activity or LPA levels in the presence of the BrP-LPA was expressed as a percentage of the corresponding control value (ATX activity, LPA levels without inhibitor). The IC50 value was determined graphically by plotting the log concentration of BrP-LPA versus relative remaining ATX activity or LPA levels of each test sample using the sigmoid dose–response fitting method (Prism® software). The IC50 (concentration of BrP-LPA sufficient to inhibit ATX activity or diminish LPA levels by 50%) was calculated by the equation f = y0+a/(1+exp(-(x-x0)/b)) given by SigmaPlot 11.0 (Systat Software, Inc., San Jose, CA, USA).
Ki was calculated using the equation of Cheng and Prusoff: Ki = IC50/1+[S]/Km, where Ki is the binding affinity of the inhibitor, IC50 is the functional strength of the inhibitor, [S] is substrate concentration and Km is the concentration of substrate at which enzyme activity is half maximal. Whereas the IC50 value for a compound may vary between experiments depending on experimental conditions, Ki is an absolute value. […]

[1] = system: orthotopic breast cancer xenograft model; set-up: method as in PMID 19509223; settings: in vivo; cited from earlier work
A549 cell = system: A549 cell; set-up: method as in PMID 20143443; settings: A549, in vitro; cited from earlier work
[2] = system: non-small cell lung cancer xenograft; set-up: method as in PMID 20143443; settings: three-dimensional non-small cell lung cancer xenograft; cited from earlier work
[3] = system: peri-tumor tissue fibroblasts, hepatocellular carcinoma cells; set-up: method as in PMID 21674557; settings: cited from earlier work
liver tumor = system: liver tumor; set-up: method as in earlier work; settings: in vivo; cited from earlier work

% Inhibition at 10 μΜ (recombinant ATX; 14:0 LPC 50 μΜ): 75% | Ki (recombinant ATX; 14:0 LPC): 1000 ± 400 nM | % Inhibition at 10 μΜ (recombinant ATX; 18:0 LPC 50 μΜ): 75% | Ki (recombinant ATX; 18:0 LPC): 800 ± 200 nM | IC50 (recombinant ATX; substrate 14:0 LPC): 1600 ± 100 nM | IC50 (recombinant ATX; substrate 18:0 LPC): 1100 ± 100 nM
Structure (SMILES): CCCCCCCCCCCCCCCC(=O)OC[C@@H](O)CC(Br)P(=O)(O)O (stereo partly drawn) [BrP-LPA, 1-bromo-3(S)-hydroxy-4-(palmitoyloxy)butyl-phosphonate]
tumor regression [1]: cause tumor regression in vivo | cell migration and invasiveness (A549 cell): inhibit cell migration and invasiveness | tumor growth and angiogenesis [2]: inhibit tumor growth and angiogenesis | trans-differentiation of peri-tumor fibroblasts and HCC cell proliferation, migration, invasion [3]: block the trans-differentiation of peri-tumor tissue fibroblasts and the associated proliferation, migration and invasion of hepatocellular carcinoma cells | liver tumor weight and volume (liver tumor): reduce liver tumor weight and volume in vivo
